Source: ChEMBL document CHEMBL4052676, “Anti-diabetic xanthones from the bark of Garcinia xanthochymus” (Bioorg Med Chem Lett, 2017)

Assays:
[1] = Inhibition of Saccharomyces cerevisiae alpha-glucosidase pre-incubated for 10 mins before p-nitrophenyl […]-D-glucopyranoside substrate addition and measured every 30 secs for 35 mins post substrate addition
[2] = biological target: T1, Tyrosine-protein phosphatase non-receptor type 1 (Homo sapiens, UniProt P18031); test: Inhibition of human recombinant PTP1B pre-incubated for 10 mins before pnitrophenyl phosphate substrate addition and measured every 30 secs for 10 mins
T1 sequence (P18031 whole entry): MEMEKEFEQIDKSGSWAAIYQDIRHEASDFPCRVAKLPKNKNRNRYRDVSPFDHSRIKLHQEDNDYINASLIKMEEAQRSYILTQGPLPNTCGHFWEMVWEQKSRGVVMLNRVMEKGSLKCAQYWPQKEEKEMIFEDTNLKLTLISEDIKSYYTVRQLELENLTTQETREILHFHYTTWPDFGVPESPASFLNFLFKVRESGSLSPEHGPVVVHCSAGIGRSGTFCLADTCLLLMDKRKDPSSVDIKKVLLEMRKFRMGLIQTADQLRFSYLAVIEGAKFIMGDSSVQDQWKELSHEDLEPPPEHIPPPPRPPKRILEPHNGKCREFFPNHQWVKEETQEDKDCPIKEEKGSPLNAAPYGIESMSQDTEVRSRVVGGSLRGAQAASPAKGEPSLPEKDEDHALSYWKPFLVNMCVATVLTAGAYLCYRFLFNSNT

| SMILES | IC50 ([1]; read-out: IC50) [µM] | IC50 ([2]; read-out: IC50) [µM] | IC50 [1] | IC50 [2] |
| --- | --- | --- | --- | --- |
| C=CC(C)(C)c1cc(O)c2oc3c(O)c4c(cc3c(=O)c2c1O)C=CC(C)(C)O4 | 36.7 | 8 | – | – |
| C=CC(C)(C)c1cc(O)c(O)c2c(=O)c3cc4c(c(O)c3oc12)OC(C)(C)C=C4 | – | 49.4 | Not Active | – |
| C=CC(C)(C)c1cc(O)c2oc3c(O)cccc3c(=O)c2c1O | 85.5 | – | – | Not Active |
| C=CC(C)(C)c1cc(O)c(O)c2c(=O)c3cc4ccoc4c(O)c3oc12 | 134 | 45.2 | – | – |
| O=c1c2cc(O)ccc2oc2ccc(O)c(O)c12 | 31.4 | 120 | – | – |
| O=c1c2cc(O)ccc2oc2cccc(O)c12 | – | 150 | Not Active | – |
| C=CC(C)(C)c1cc(O)c2oc3c(O)c(O)ccc3c(=O)c2c1O | 4.1 | 53 | – | – |
| C=CC(C)(C)c1cc(O)c(O)c2c(=O)c3ccc(O)c(O)c3oc12 | 27.5 | 85.5 | – | – |
| C=CC(C)(C)c1cc(O)c(O)c2c(=O)c3cccc(O)c3oc12 | 29.8 | 73.2 | – | – |
| C=CC(C)(C)c1cc(O)c2oc3c(O)c4occc4cc3c(=O)c2c1O | 142 | 26.8 | – | – |
| O=c1c2cccc(O)c2oc2c(O)ccc(O)c12 | 358 | 148 | – | – |
| C[C@H]1O[C@H](O[C@H]2[C@H](O)[C@@H](O)[C@@H](O[C@H]3[C@H](O)[C@@H](O)C(O)O[C@@H]3CO)O[C@@H]2CO)[C@H](O)[C@@H](O)[C@@H]1N[C@H]1C=C(CO)[C@@H](O)[C@H](O)[C@H]1O (stereo not given in full) [ACARBOSE] | 900 | – | – | – |
| COc1c(O)cc2oc3cc4occc4c(O)c3c(=O)c2c1C/C=C(\C)CCC=C(C)C | 94.2 | 55.1 | – | – |
